The text below walks through data of ChEMBL document CHEMBL1201862, “PubChem BioAssay data set” (2004).

SMILES strings stand for the structures.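 48-hour exposure; five concentrations; linearly interpolated endpoints. GI50: concentration for 50% inhibition of growth.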 Active and inactive are the calls of the source. No stated cut-off is given here; in the data, active = GI50 up to about 1.1 µM and inactive = higher. Some results are limits rather than exact numbers.

Among the test systems are CCRF-CEM; COLO 205; T47D; NCI-H522; A549; MDA-MB-231; NCI-H460; UACC-257; 786-0; ACHN; NCI-H23; HL-60; OVCAR-4; Malme-3M; DU-145; SK-MEL-5; SNB-75; RPMI-8226.
Holding throughout (experiment): NCI-60 cell line screen, 48 h

For the compound `COc1ccc(NC(C)=O)cc1N1C(=O)/C(=C\c2cc(OC)c(OC)c(OC)c2)S(=O)(=O)C1c1ccccc1` (stereo unspecified), the GI50 is 29.3 µM (inactive) with CCRF-CEM; 39 µM (inactive) with COLO 205; 38.3 µM (inactive) in the assay with T47D; 45.5 µM (inactive) in the assay with NCI-H522; 61.7 µM (inactive) in the assay with A549; 74.3 µM (inactive) in the assay with MDA-MB-231. The GI50 with NCI-H460 was 58.9 µM (inactive); with UACC-257, 89.5 µM (inactive); with 786-0, 72.9 µM (inactive); in the assay with ACHN it was 70.5 µM (inactive); in the assay on NCI-H23 it was 71.4 µM (inactive); in the assay on HL-60, 19.3 µM (inactive). Moreover, the GI50 was 31.6 µM (inactive) with OVCAR-4; 78.3 µM (inactive) with Malme-3M; 75 µM (inactive) with DU-145; 44.8 µM (inactive) in the assay with SK-MEL-5; 39 µM (inactive) with SNB-75; 65.8 µM (inactive) in the assay with RPMI-8226.
On to `CCOC(=O)c1cc(-c2ccc(OC)c(OC)c2)cn1C`, for which the GI50 in the assay with CCRF-CEM, in the assay with COLO 205, in the assay with T47D, in the assay on NCI-H522, with A549 and with MDA-MB-231 was > 10 µM (inactive) each time. Besides, the GI50 in the assay with NCI-H460, with UACC-257, with 786-0, in the assay with ACHN, with NCI-H23 and in the assay on HL-60 was > 10 µM (inactive) in each case. For the same compound, the GI50 was > 10 µM (inactive) in the assay on OVCAR-4; > 10 µM (inactive) in the assay on Malme-3M; > 10 µM (inactive) in the assay on DU-145; > 10 µM (inactive) with SK-MEL-5; 4.43 µM (inactive) in the assay on SNB-75; > 10 µM (inactive) in the assay with RPMI-8226.
As to `CC(C)(C)OC(=O)NCCC(=O)NC1(c2cc3ccccc3s2)CCCCC1`, the GI50 in the assay on CCRF-CEM is 12.5 µM (inactive); in the assay on COLO 205, 17.5 µM (inactive); with T47D, 8.05 µM (inactive); with NCI-H522 it was 12.5 µM (inactive); in the assay on A549, 15.9 µM (inactive); in the assay with MDA-MB-231, 19.1 µM (inactive). Also, the GI50 in the assay on NCI-H460 was 14.8 µM (inactive); with UACC-257 it was 19.1 µM (inactive); in the assay with 786-0, 17.5 µM (inactive); with ACHN, 24.5 µM (inactive); in the assay with NCI-H23, 15.5 µM (inactive); in the assay on HL-60, 16.7 µM (inactive). The GI50 in the assay with OVCAR-4 is 13.4 µM (inactive); in the assay on Malme-3M, 21.5 µM (inactive); in the assay on DU-145, 16.7 µM (inactive); with SK-MEL-5, 13.1 µM (inactive); in the assay on SNB-75, 17.4 µM (inactive); with RPMI-8226, 0.759 µM (active).
On to `COC(=O)C1CCC(=O)N1C(c1ccc(OC)cc1)c1ccc2c(c1)OCO2` (stereo unspecified), for which the GI50 in the assay with CCRF-CEM is 43.1 µM (inactive); in the assay on COLO 205, 37.9 µM (inactive); in the assay on T47D, > 100 µM (inactive); in the assay with NCI-H522 it was 22.4 µM (inactive); in the assay with A549, 47.5 µM (inactive); in the assay with MDA-MB-231 it was > 100 µM (inactive). Moreover, the GI50 was 40.4 µM (inactive) with NCI-H460; 39.1 µM (inactive) in the assay on UACC-257; 62.8 µM (inactive) in the assay on 786-0; 97.9 µM (inactive) in the assay on ACHN; 82.8 µM (inactive) with NCI-H23; 21.2 µM (inactive) in the assay with HL-60. Further, the GI50 was > 100 µM (inactive) with OVCAR-4; 45.5 µM (inactive) with Malme-3M; > 100 µM (inactive) in the assay with DU-145; 24.7 µM (inactive) in the assay on SK-MEL-5; 20.2 µM (inactive) with SNB-75; 43.3 µM (inactive) in the assay on RPMI-8226.
With `NCc1ccc(-c2ccc(-c3ccc(-c4ccc(CN)s4)s3)s2)s1`, the GI50 in the assay on CCRF-CEM, in the assay with COLO 205, with T47D, in the assay on NCI-H522, with A549 and with MDA-MB-231 was > 100 µM (inactive) throughout. Also, the GI50 with UACC-257, in the assay on 786-0, in the assay with ACHN, in the assay with NCI-H23, in the assay on HL-60 and in the assay with OVCAR-4 was > 100 µM (inactive) throughout. The GI50 in the assay with Malme-3M, with DU-145, in the assay on SK-MEL-5, in the assay with SNB-75 and in the assay with RPMI-8226 was > 100 µM (inactive) each time.
On to `COc1ccc2nc3cc([N+](=O)[O-])ccc3c(Nc3ccc(S(=O)(=O)Nc4ncccn4)cc3)c2c1`, for which the GI50 is > 76.9 µM (inactive) in the assay with CCRF-CEM; 40.3 µM (inactive) with COLO 205; > 100 µM (inactive) in the assay on T47D; > 71.1 µM (inactive) with NCI-H522; > 100 µM (inactive) in the assay with A549; > 60.1 µM (inactive) with MDA-MB-231. Further, the GI50 in the assay with NCI-H460 was 61.5 µM (inactive); with UACC-257 it was > 71.1 µM (inactive); with 786-0 it was 67 µM (inactive); in the assay on ACHN it was 28.8 µM (inactive); with HL-60, > 100 µM (inactive); in the assay on OVCAR-4, > 100 µM (inactive). For the same compound, the GI50 was 48.3 µM (inactive) in the assay with Malme-3M; > 100 µM (inactive) in the assay on DU-145; 41.6 µM (inactive) with SK-MEL-5; 62.2 µM (inactive) with SNB-75; 14.5 µM (inactive) in the assay with RPMI-8226.
In the case of `CC(C)(C)[Si](C)(C)OC1(CCc2ccccc2OS(=O)(=O)C(F)(F)F)CCCC=C1COCc1ccccc1` (stereo unspecified), the GI50 was 5.19 µM (inactive) with CCRF-CEM; 5.85 µM (inactive) with COLO 205; 6.35 µM (inactive) with T47D; 2.79 µM (inactive) with NCI-H522; 0.325 µM (active) in the assay with A549; > 100 µM (inactive) with MDA-MB-231. Further, the GI50 in the assay with 786-0 was > 100 µM (inactive); in the assay with ACHN, 35.4 µM (inactive); in the assay with NCI-H23, 9.62 µM (inactive); with HL-60 it was 2.42 µM (inactive); with OVCAR-4, 6.05 µM (inactive); with Malme-3M it was 0.202 µM (active). For the same compound, the GI50 was > 100 µM (inactive) in the assay on DU-145, 8.61 µM (inactive) in the assay with SNB-75 and 2.95 µM (inactive) in the assay with RPMI-8226.
In the case of `CC(C)CCCC(C)[C@H]1CC[C@H]2[C@@H]3CC[C@H]4C[C@@H](CCC=C(c5cc(Cl)c(O)c(C(=O)O)c5)c5cc(Cl)c(O)c(C(=O)O)c5)CC[C@]4(C)[C@H]3CC[C@]12C` (stereo partly specified), the GI50 in the assay on CCRF-CEM, in the assay on COLO 205, with T47D, in the assay with NCI-H522, in the assay with A549 and in the assay on MDA-MB-231 was > 50 µM (inactive) each time. For the same compound, the GI50 with NCI-H460 is 25.4 µM (inactive); with 786-0 it was 32.2 µM (inactive); in the assay with ACHN, > 50 µM (inactive); with NCI-H23 it was > 50 µM (inactive); in the assay with HL-60, > 50 µM (inactive); with OVCAR-4, > 50 µM (inactive). Moreover, the GI50 with Malme-3M is > 50 µM (inactive); in the assay with DU-145, > 50 µM (inactive); in the assay on SK-MEL-5, 28.8 µM (inactive); in the assay on SNB-75, > 50 µM (inactive); with RPMI-8226, > 50 µM (inactive).
On to `O=c1oc2ccc([N+](=O)[O-])cc2cc1-c1csc(-c2ccccc2)n1`, for which the GI50 in the assay with CCRF-CEM, with COLO 205, in the assay on T47D, with NCI-H522, in the assay with A549 and with MDA-MB-231 was > 100 µM (inactive) throughout. Besides, the GI50 in the assay on NCI-H460, with UACC-257, with 786-0, with ACHN, with HL-60 and in the assay on OVCAR-4 was > 100 µM (inactive) throughout. In addition, the GI50 in the assay with Malme-3M was 32.6 µM (inactive); in the assay with DU-145 it was > 100 µM (inactive); in the assay on SK-MEL-5, > 100 µM (inactive); in the assay with SNB-75, 0.817 µM (active); with RPMI-8226, > 100 µM (inactive).
`N=C(N)SCCN1CCCCC1`: the GI50 with COLO 205 is > 100 µM (inactive); in the assay on T47D, 27.5 µM (inactive); in the assay with NCI-H522 it was 7.5 µM (inactive); in the assay with A549, 56 µM (inactive); in the assay on MDA-MB-231 it was 22.8 µM (inactive); in the assay with NCI-H460, 32.7 µM (inactive). In addition, the GI50 in the assay on UACC-257 is 18.6 µM (inactive); in the assay with 786-0, 22.3 µM (inactive); in the assay with ACHN, 25.6 µM (inactive); in the assay on NCI-H23, 26.1 µM (inactive); in the assay on HL-60, 21.2 µM (inactive); in the assay with OVCAR-4 it was 31.6 µM (inactive). Also, the GI50 with Malme-3M is 12.5 µM (inactive); in the assay on DU-145, 24.7 µM (inactive); in the assay with SK-MEL-5, 48 µM (inactive); in the assay with SNB-75, 37.4 µM (inactive); in the assay with RPMI-8226 it was 14.1 µM (inactive).
On to `O=C1OCc2c1cc1cc3c(cc1c2-c1ccc2c(c1)OCO2)OCO3.O=C1OCc2cc3cc4c(cc3c(-c3ccc5c(c3)OCO5)c21)OCO4`, for which the GI50 was 3.34 µM (inactive) in the assay on CCRF-CEM; 5.79 µM (inactive) in the assay with COLO 205; 24.5 µM (inactive) in the assay on T47D; 2.12 µM (inactive) in the assay with MDA-MB-231; 5.79 µM (inactive) in the assay on NCI-H460; 25.5 µM (inactive) in the assay with UACC-257. Besides, the GI50 was 28.8 µM (inactive) in the assay with NCI-H23; 34.8 µM (inactive) in the assay with HL-60; 18 µM (inactive) with OVCAR-4; 37.2 µM (inactive) in the assay with Malme-3M; 11.3 µM (inactive) with DU-145; 4.7 µM (inactive) in the assay on SK-MEL-5. Moreover, the GI50 in the assay with SNB-75 is 10 µM (inactive); with RPMI-8226, 4.31 µM (inactive).
